Data published in BindingDB's records for doi:10.1074/jbc.M606873200 (Parke-Davis Pharmaceutical Research, 1997).

Legend:
Assay in all cases: Kinase Inhibition Assay
[1] = molecular target: Platelet-derived growth factor receptor beta (Homo sapiens, UniProt P09619)
Method: (§1) The kinase activity is the enzyme activity that catalyzes the transfer of the terminal phosphate from [gamma-32P] ATP to the poly (E: Y) substrate. Nonspecific activity was defined as radioactivity retained on the filters following incubation of samples without enzyme. Specific activity was determined as total activity minus nonspecific activity.

[2] = molecular target: Platelet-derived growth factor receptor alpha/beta (Homo sapiens, UniProt P09619+P16234)
Method: as §1

[3] = molecular target: Mitogen-activated protein kinase 1/3 (Homo sapiens, UniProt P27361+P28482)
Method: as §1

[4] = molecular target: Cyclin-dependent kinase 4 (Homo sapiens, UniProt P11802)
Method: as §1

[5] = molecular target: Fibroblast growth factor receptor 1 (Homo sapiens, UniProt P11362)
Method: as §1

[6] = molecular target: Proto-oncogene tyrosine-protein kinase Src (Homo sapiens, UniProt P12931)
Method: as §1

[7] = molecular target: Protein kinase C (PKC)
Method: as §1

Sequence of Fibroblast growth factor receptor 1 (P11362 whole entry): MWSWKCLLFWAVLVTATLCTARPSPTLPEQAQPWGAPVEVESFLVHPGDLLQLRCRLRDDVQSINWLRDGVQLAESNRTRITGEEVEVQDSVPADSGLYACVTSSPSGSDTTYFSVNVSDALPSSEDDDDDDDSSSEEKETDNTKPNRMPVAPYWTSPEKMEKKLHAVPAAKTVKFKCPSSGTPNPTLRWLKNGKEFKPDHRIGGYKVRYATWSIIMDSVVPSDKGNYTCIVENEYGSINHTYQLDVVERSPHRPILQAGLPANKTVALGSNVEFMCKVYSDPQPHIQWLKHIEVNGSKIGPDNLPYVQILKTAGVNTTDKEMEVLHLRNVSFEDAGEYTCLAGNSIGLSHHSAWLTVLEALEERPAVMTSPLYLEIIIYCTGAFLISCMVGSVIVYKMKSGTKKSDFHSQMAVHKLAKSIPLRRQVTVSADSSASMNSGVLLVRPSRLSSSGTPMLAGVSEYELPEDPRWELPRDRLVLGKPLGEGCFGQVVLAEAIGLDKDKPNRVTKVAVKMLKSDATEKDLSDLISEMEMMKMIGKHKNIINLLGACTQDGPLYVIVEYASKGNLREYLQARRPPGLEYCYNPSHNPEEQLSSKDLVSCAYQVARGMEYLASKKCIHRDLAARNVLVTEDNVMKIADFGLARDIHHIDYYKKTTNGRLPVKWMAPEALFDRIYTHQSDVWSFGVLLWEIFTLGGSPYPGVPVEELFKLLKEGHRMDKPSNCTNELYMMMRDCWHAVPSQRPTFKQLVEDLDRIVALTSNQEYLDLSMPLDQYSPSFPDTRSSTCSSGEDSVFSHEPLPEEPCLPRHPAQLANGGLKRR
Sequence of Cyclin-dependent kinase 4 (P11802 whole entry): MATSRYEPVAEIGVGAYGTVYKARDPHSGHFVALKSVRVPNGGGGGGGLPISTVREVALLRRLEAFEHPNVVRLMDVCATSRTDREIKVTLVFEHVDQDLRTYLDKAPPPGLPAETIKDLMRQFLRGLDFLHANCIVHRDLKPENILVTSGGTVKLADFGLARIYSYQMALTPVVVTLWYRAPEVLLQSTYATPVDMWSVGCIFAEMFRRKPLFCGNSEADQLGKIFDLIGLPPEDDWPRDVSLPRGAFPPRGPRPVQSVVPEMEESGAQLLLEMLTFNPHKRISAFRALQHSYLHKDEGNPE
Sequence of Platelet-derived growth factor receptor beta (P09619 whole entry): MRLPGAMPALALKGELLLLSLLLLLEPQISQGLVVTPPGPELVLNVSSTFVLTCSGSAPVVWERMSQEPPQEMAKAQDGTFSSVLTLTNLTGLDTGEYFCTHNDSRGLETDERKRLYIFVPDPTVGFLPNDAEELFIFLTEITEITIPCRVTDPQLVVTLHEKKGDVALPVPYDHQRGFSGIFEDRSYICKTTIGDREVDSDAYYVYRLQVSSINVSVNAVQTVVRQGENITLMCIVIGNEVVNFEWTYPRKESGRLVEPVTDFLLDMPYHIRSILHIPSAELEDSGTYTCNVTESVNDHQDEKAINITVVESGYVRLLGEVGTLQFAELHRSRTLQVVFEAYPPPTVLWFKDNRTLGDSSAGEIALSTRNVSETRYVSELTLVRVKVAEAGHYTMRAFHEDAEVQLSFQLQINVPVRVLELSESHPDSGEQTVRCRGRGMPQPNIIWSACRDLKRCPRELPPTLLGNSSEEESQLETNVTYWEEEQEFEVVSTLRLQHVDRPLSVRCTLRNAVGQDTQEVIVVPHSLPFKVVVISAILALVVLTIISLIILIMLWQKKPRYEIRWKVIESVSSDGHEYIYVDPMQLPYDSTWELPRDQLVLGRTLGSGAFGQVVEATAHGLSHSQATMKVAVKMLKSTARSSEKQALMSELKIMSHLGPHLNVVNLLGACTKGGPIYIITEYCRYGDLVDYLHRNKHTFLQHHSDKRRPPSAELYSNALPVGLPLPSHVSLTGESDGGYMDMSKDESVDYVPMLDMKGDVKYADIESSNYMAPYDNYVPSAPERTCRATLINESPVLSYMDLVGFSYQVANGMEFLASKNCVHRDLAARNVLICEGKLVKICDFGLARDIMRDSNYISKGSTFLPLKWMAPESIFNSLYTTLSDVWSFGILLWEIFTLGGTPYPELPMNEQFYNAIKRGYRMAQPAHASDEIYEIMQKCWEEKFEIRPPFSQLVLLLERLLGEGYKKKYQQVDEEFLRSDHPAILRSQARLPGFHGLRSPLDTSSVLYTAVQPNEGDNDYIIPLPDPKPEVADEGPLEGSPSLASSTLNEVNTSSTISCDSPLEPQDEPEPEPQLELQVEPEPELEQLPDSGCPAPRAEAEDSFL
Sequence of Proto-oncogene tyrosine-protein kinase Src (P12931 2-536 limits assumed): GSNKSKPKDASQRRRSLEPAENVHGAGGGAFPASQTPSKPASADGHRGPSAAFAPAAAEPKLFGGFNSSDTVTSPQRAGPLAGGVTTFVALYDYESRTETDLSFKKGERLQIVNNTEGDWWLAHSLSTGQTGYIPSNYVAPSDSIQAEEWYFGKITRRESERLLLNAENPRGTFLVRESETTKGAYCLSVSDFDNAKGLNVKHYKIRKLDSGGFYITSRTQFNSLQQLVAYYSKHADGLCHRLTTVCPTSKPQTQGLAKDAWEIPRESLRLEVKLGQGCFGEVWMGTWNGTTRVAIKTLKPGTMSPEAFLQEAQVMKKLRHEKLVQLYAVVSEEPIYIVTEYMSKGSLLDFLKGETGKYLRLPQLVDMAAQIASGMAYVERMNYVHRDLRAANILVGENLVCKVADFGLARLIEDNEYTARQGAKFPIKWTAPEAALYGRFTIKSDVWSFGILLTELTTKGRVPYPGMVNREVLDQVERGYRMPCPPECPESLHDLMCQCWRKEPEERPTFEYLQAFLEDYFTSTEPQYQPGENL
Sequence of Mitogen-activated protein kinase 1/3 (P28482 whole entry): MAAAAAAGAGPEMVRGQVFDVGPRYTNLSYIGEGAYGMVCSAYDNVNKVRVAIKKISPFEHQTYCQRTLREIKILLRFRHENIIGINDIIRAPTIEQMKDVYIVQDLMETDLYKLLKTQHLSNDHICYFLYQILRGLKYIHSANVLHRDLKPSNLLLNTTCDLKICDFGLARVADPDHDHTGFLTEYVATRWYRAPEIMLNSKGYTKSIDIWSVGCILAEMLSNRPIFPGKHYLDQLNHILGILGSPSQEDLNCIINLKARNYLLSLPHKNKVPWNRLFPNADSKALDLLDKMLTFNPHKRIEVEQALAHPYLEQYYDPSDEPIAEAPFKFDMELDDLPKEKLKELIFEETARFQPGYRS
Sequence of Mitogen-activated protein kinase 1/3 (P27361 whole entry): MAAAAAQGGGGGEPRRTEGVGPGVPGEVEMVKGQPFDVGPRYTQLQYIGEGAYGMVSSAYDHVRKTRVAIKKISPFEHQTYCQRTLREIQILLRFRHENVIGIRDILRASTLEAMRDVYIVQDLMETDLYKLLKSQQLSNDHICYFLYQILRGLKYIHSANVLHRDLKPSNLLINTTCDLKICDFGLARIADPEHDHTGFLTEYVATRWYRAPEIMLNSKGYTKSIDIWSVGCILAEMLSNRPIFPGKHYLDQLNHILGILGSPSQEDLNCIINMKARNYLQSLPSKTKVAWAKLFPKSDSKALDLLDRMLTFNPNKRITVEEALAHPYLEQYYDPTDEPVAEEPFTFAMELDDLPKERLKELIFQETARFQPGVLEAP

IC50 ([1]; pH 7.4, 25 °C) [µM]	IC50 [2] [µM]	IC50 [3] [µM]	IC50 [4] [µM]	IC50 [5] [µM]	IC50 [1] [µM]	IC50 [6] [µM]	IC50 [7] [µM]	Structure (SMILES)
4.48	4.48	–	–	–	–	10.4	–	COc1ccccc1-c1cc2cnc(N)nc2nc1NC(=O)NC(C)(C)C [1-[2-amino-6-(2-methoxyphenyl)pyrido[2,3-d]pyrimidin-7-yl]-3-tert-butylurea]
1.05	1.05	–	–	–	–	–	–	Cc1ccccc1-c1cc2cnc(N)nc2nc1NC(=O)NC(C)(C)C [1-[2-amino-6-(2-methylphenyl)pyrido[2,3-d]pyrimidin-7-yl]-3-tert-butylurea]
–	> 50	–	–	20.2	> 50	> 50	–	COc1ccc(-c2cc3cnc(N)nc3nc2NC(=O)NC(C)(C)C)cc1OC [1-[2-amino-6-(3,4-dimethoxyphenyl)pyrido[2,3-d]pyrimidin-7-yl]-3-tert-butylurea]
–	> 50	–	–	1.65	> 50	> 50	–	CCOc1cc(OCC)cc(-c2cc3cnc(N)nc3nc2NC(=O)NC(C)(C)C)c1 [1-[2-amino-6-(3,5-diethoxyphenyl)pyrido[2,3-d]pyrimidin-7-yl]-3-tert-butylurea]
> 50	> 50	–	–	7.76	–	> 50	–	CCc1cc(CC)cc(-c2cc3cnc(N)nc3nc2NC(=O)NC(C)(C)C)c1 [1-[2-amino-6-(3,5-diethylphenyl)pyrido[2,3-d]pyrimidin-7-yl]-3-tert-butylurea]
8.97	8.97	–	–	1.1	–	1.35	–	CC(C)(C)NC(=O)Nc1nc2nc(N)ncc2cc1-c1cc(F)cc(F)c1 [1-[2-amino-6-(3,5-difluorophenyl)pyrido[2,3-d]pyrimidin-7-yl]-3-tert-butylurea]
52.9	52.9	–	–	1.13	–	> 50	–	Cc1cc(C)cc(-c2cc3cnc(N)nc3nc2NC(=O)NC(C)(C)C)c1 [1-[2-amino-6-(3,5-dimethylphenyl)pyrido[2,3-d]pyrimidin-7-yl]-3-tert-butylurea]
–	23	–	–	0.67	23	> 50	–	CCOc1cccc(-c2cc3cnc(N)nc3nc2NC(=O)NC(C)(C)C)c1 [1-[2-amino-6-(3-ethoxyphenyl)pyrido[2,3-d]pyrimidin-7-yl]-3-tert-butylurea]
–	22.9	–	–	0.36	22.9	–	–	COc1cccc(-c2cc3cnc(N)nc3nc2NC(=O)NC(C)(C)C)c1 [1-[2-amino-6-(3-methoxyphenyl)pyrido[2,3-d]pyrimidin-7-yl]-3-tert-butylurea]
–	2.89	–	–	3.97	2.89	> 50	–	COc1ccc(-c2cc3cnc(N)nc3nc2NC(=O)NC(C)(C)C)cc1 [1-[2-amino-6-(4-methoxyphenyl)pyrido[2,3-d]pyrimidin-7-yl]-3-tert-butylurea]
6.31	6.31	–	–	1.67	–	17.5	–	Cc1ccc(-c2cc3cnc(N)nc3nc2NC(=O)NC(C)(C)C)cc1 [1-[2-amino-6-(4-methylphenyl)pyrido[2,3-d]pyrimidin-7-yl]-3-tert-butylurea]
> 50	> 50	–	–	> 50	–	> 50	–	CC(C)(C)NC(=O)Nc1nc2nc(N)ncc2cc1-c1cc(C(F)(F)F)cc(C(F)(F)F)c1 [1-{2-amino-6-[3,5-bis(trifluoromethyl)phenyl]pyrido[2,3-d]pyrimidin-7-yl}-3-tert-butylurea]
13.2	13.2	–	–	8	–	19.3	–	CC(C)(C)NC(=O)Nc1nc2nc(N)ncc2cc1-c1ccccc1 [1-{2-amino-6-phenylpyrido[2,3-d]pyrimidin-7-yl}-3-tert-butylurea]
–	–	–	> 40	0.06	–	–	–	COc1cc(OC)cc(-c2cc3cnc(N)nc3nc2NC(=O)NC(C)(C)C)c1 [6-arylpyrido[2,3-d]pyrimidine deriv. 25]

The remaining lines, values behind:

Structure (SMILES)	IC50 ([1]; pH 7.4, 25 °C) [µM]	IC50 [2] [µM]	IC50 [3] [µM]	IC50 [4] [µM]	IC50 [5] [µM]	IC50 [1] [µM]	IC50 [6] [µM]	IC50 [7] [µM]
CC(C)(C)NC(=O)Nc1nc2nc(N)ncc2cc1-c1c(Cl)cccc1Cl	1.25	1.25	7.1	> 50	–	–	–	–
CN(C)c1cc(-c2cc3cnc(N)nc3nc2NC(=O)NC(C)(C)C)cc(N(C)C)c1	–	> 50	–	–	16	> 50	> 50	–
CCN(CC)CCOc1ccc(C)c(-c2cc3cnc(N)nc3nc2NC(=O)NC(C)(C)C)c1C [1-(2-amino-6-{3-[2-(diethylamino)ethoxy]-2,6-dimethylphenyl}pyrido[2,3-d]pyrimidin-7-yl)-3-tert-butylurea]	11.8	11.8	–	–	0.89	–	1.65	–
CC(C)(C)NC(=O)Nc1nc2nc(N)ncc2cc1-c1c(Br)cccc1Br [1-[2-Amino-6-(2,6-dibromo-phenyl)-pyrido-[2,3-d]pyrimidin-7-yl]-3-tert-butyl-urea]	1.42	1.42	–	–	0.29	–	0.21	–
Cc1c(C)c(C)c(-c2cc3cnc(N)nc3nc2NC(=O)NC(C)(C)C)c(C)c1C [1-[2-amino-6-(2,3,4,5,6-pentamethylphenyl)pyrido[2,3-d]pyrimidin-7-yl]-3-tert-butylurea]	> 50	> 50	–	–	1.62	–	> 50	–
Cc1cc(C)c(C)c(-c2cc3cnc(N)nc3nc2NC(=O)NC(C)(C)C)c1C [1-[2-amino-6-(2,3,5,6-tetramethylphenyl)pyrido[2,3-d]pyrimidin-7-yl]-3-tert-butylurea]	> 50	> 50	> 50	> 40	–	–	–	> 50
CC(C)(C)NC(=O)Nc1nc2nc(N)ncc2cc1-c1c(Cl)ccc(Cl)c1Cl [1-[2-amino-6-(2,3,6-trichlorophenyl)pyrido[2,3-d]pyrimidin-7-yl]-3-tert-butylurea]	2.96	2.96	–	–	0.11	–	–	–
CC(C)(C)NC(=O)Nc1nc2nc(N)ncc2cc1-c1cccc(Cl)c1Cl [1-[2-amino-6-(2,3-dichlorophenyl)pyrido[2,3-d]pyrimidin-7-yl]-3-tert-butylurea]	2.26	2.26	–	–	0.16	–	4.41	–
Cc1cccc(-c2cc3cnc(N)nc3nc2NC(=O)NC(C)(C)C)c1C [1-[2-amino-6-(2,3-dimethylphenyl)pyrido[2,3-d]pyrimidin-7-yl]-3-tert-butylurea]	6.05	6.05	–	–	–	–	–	–
Cc1cc(C)c(-c2cc3cnc(N)nc3nc2NC(=O)NC(C)(C)C)c(C)c1 [1-[2-amino-6-(2,4,6-trimethylphenyl)pyrido[2,3-d]pyrimidin-7-yl]-3-tert-butylurea]	1.47	1.47	–	–	0.27	–	0.36	–
CC(C)(C)NC(=O)Nc1nc2nc(N)ncc2cc1-c1c(F)cccc1F [1-[2-amino-6-(2,6-difluorophenyl)pyrido[2,3-d]pyrimidin-7-yl]-3-tert-butylurea]	1.67	1.67	–	–	0.11	–	0.8	–
CC(C)(C)NC(=O)Nc1nc2nc(N)ncc2cc1-c1c(Cl)cccc1Br [1-[2-amino-6-(2-bromo-6-chlorophenyl)pyrido[2,3-d]pyrimidin-7-yl]-3-tert-butylurea]	0.62	0.62	–	–	–	–	0.21	–
CCc1ccccc1-c1cc2cnc(N)nc2nc1NC(=O)NC(C)(C)C [1-[2-amino-6-(2-ethylphenyl)pyrido[2,3-d]pyrimidin-7-yl]-3-tert-butylurea]	4.48	4.48	–	–	11.2	–	10.4	–
